The test system of one test is Cx43_HCC1937 cells. Briefly: 48 h olaparib dose-response curve, cell viability. The format is cell-based. The following applies: Homo sapiens.
For another test, the system named is HCC1937 cells. Briefly: Proliferation assay (Cell Counting Kit-8). The format is cell-based, human. The following applies: Cx43_HCC1937 compared to EV_HCC1937; 100 and 200 µM olaparib, over 96 h, all concentrations and time points. The protocol:
Proliferation of tumour cell lines was evaluated using the Cell Counting Kit-8 (Dojindo Molecular Technologies). This kit comprises WST-8, a highly water-soluble tetrazolium salt, which upon reduction by cellular dehydrogenases of viable cells, gives rise to a yellow formazan dye that is solube in cell culture media and can be quantitated. Briefly, similar number of cells (1 000-5 000) were plated in 96-well plates (Corning) and left to grow for the desired time period under different treatment conditions. Then, medium was renewed (100 µL volume/well) and 10 µL of CCK-8 reagent were added to each well. Plates were incubated in the dark for 3 h at 37 °C, and absorbance was measured at 450 nm in a NanoQuant Infinite 200 plate reader (Tecan).
Cell viability was either relativized to untreated controls for each cell line at each time point, in order to account for the already reduced proliferation of Cx43-restituted cells (top graph) or reported as raw absorbance value (bottom graph).
To further characterize its involvement in BRCA1/2 mutated cancer, Cx43 was restituted by plasmid transfection in BRCA1 mutated TNBC and ovarian carcinoma cell lines, HCC1937 and SNU251, respectively. […]
A general note: Formazan colour is commonly taken as a measure of viable cells.

Test [1] has as its system poly(ADP-ribose) (PAR) polymer. As to the kind of experiment: Global protein PARylation, western blot and immunofluorescence. The format is cell-based, human. The following applies: 48 and 96 h, western blot. How it is done:
2 000-10 000 cells were plated on glass coverslips (Thermo Fisher Scientific) previously coated with poly-D-lysine hydrobromide (Sigma-Aldrich) and cultured until they were approximately 80 % confluent. They were washed with PBS, fixed with 4 % paraformaldehyde (PFA, Sigma-Aldrich) in PBS for 15 min at room temperature and rinsed twice with PBS. Next, cells were incubated with 0.1 M glycine (Sigma-Aldrich) in distilled water to quench PFA for 10 min at room temperature, and then their membranes were permeabilized with 0.2 % Triton X-100 (Sigma-Aldrich) in PBS for 10 min at room temperature. After two 5 min PBS washes, potential nonspecific antibody binding sites were blocked with 1 % bovine serum albumin (BSA; Sigma-Aldrich) diluted in PBST (PBS+0.1 % Tween 20; Sigma-Aldrich) for 30 min at room temperature. Cells were incubated overnight at 4 °C in the dark with primary antibody (see references in Table 3) diluted in 1 % BSA in PBST. […]
Protein extracts were mixed with loading buffer, which consisted of 10 % (v/v) β-mercaptoethanol (Sigma-Aldrich), 10 % SDS, 50 % (v/v) glycerol, 200 mM Tris-HCl pH 6.8 and 0.1 % bromophenol blue (Sigma-Aldrich). […] Ponceau staining and western blot images were analysed and their band intensities quantitated with Image J software. […]

In general, IC50 refers to the concentration that inhibits the measured activity by half. Low readings indicate higher potency, high ones lower potency.

In the test on Cx43_HCC1937 cells, `O=C(c1cc(Cc2n[nH]c(=O)c3ccccc23)ccc1F)N1CCN(C(=O)C2CC2)CC1` [Olaparib, olaparib] yielded an IC50 of 350 µM. For the same compound, in the test with HCC1937 cells, the “cell viability (proliferation assay)” value was “robust and significant decrease in cell viability”. In addition, the PAR levels entry is “decreased” in test [1] (Cx43_HCC1937, 50/100 µM olaparib) and “rose” in test [1] (EV_HCC1937, 50/100 µM olaparib).

Values taken from patent EP4463162B1, “CONNEXIN 43 FOR USE IN TREATING BRCA1/2-MUTATED CANCER” (Fundación Profesor Novoa Santos, priority 2022, dated 2023).
